pIC50: −log10 of the molar value. A value given as a limit tells only on which side of the number the result lay.

The assay has as its target GCN2 (Homo sapiens (Human), UniProt Q9P2K8). Description: GCN2 Biochemical Assay (TR-FRET, GFP-eIF2S1 substrate phosphorylation). As to conditions: read-out: IC50 (GCN2 Inhibitory Activity). In short, it runs like this:
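TR-FRET readout (Ex 340, Em 490/520 nm) after 2–3 h with Tb-labelled phospho-eIF2S1 antibody in stop mix, following a 70 min room-temperature kinase step. Reaction: in-house GCN2, GFP-eIF2S1, ATP, tRNA in Tris pH 7.5 (2× stocks 1.6 nM, 50 nM, 0.2 mM); compounds tested at 10 concentrations, with a phospho-substrate artifact counter-plate.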

GCN2, sequence (Q9P2K8 whole entry): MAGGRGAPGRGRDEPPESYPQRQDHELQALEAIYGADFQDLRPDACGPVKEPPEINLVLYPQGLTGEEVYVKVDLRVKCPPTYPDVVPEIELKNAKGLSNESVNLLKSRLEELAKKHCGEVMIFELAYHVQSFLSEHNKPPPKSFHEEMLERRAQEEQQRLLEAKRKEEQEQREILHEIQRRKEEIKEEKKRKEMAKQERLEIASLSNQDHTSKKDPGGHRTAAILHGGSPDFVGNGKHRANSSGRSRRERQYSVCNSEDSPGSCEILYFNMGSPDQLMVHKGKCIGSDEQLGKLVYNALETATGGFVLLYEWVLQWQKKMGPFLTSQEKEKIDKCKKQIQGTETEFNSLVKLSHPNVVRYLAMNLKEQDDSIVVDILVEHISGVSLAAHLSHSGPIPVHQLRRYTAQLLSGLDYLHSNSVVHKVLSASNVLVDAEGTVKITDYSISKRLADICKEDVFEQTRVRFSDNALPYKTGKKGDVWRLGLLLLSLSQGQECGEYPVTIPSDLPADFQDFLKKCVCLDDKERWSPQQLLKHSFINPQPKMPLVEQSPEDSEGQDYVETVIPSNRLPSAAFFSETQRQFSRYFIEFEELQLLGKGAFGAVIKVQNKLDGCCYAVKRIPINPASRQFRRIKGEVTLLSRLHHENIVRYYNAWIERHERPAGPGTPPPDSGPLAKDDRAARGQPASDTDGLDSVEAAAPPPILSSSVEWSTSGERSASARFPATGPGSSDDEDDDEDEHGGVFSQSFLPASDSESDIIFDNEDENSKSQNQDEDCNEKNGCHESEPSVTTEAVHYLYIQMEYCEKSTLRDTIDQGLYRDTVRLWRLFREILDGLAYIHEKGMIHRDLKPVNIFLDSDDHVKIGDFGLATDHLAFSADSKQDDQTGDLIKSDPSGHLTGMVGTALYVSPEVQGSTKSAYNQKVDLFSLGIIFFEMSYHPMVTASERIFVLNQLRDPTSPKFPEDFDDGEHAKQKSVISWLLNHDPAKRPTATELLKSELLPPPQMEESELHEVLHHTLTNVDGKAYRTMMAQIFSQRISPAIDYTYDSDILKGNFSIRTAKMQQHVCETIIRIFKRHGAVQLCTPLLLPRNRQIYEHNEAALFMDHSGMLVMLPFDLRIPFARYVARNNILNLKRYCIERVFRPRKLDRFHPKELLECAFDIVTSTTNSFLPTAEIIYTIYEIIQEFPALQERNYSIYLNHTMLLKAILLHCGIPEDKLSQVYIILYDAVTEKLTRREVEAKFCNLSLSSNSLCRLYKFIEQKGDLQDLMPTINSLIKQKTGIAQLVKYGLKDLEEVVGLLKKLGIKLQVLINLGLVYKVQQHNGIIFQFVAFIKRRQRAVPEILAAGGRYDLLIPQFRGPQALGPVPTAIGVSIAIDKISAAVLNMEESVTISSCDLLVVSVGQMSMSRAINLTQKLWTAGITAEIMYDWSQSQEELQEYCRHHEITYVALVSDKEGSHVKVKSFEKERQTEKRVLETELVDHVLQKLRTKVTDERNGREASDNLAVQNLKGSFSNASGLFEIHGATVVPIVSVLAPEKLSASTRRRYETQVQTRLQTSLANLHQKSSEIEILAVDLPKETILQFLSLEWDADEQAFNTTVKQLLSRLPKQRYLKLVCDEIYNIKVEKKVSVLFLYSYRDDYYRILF

As for `Cc1cnc(Nc2cc(C)n(C)n2)nc1-c1c[nH]c2c(N3Cc4c(NC(=O)[C@H]5CCC(=O)N5)cccc4C3=O)cccc12` [Example 318, (R)-N-(2-(3-(2-((1,5-dimethyl-1H-pyrazol-3-yl)amino)-5-methylpyrimidin-4-yl)-1H-indol-7-yl)-1-oxoisoindolin-4-yl)-5-oxopyrrolidine-2-carboxamide], the pIC50 is above 8.00.
The figure for `Cc1cnc(Nc2cc(C)n(CCN3CCOCC3)n2)nc1-c1c[nH]c2c(NC(=O)CN3CC[C@H](Oc4ccnc(NC5CC5)n4)C3)cccc12` [Example 17, (S)-2-(3-((2-(cyclopropylamino)pyrimidin-4-yl)oxy)pyrrolidin-1-yl)-N-(3-(5-methyl-2-((5-methyl-1-(2-morpholinoethyl)-1H-pyrazol-3-yl)amino)pyrimidin-4-yl)-1H-indol-7-yl)acetamide] is above 8.00; for `Cc1cnc(Nc2cc(C)n(C)n2)nc1-c1c[nH]c2c(N3Cc4cccc(N5CCN(C)CC5)c4C3=O)cccc12` [Example 348, 2-(3-(2-((1,5-dimethyl-1H-pyrazol-3-yl)amino)-5-methylpyrimidin-4-yl)-1H-indol-7-yl)-7-(4-methylpiperazin-1-yl)isoindolin-1-one] it is 7.00 to 8.00.
The figure for `Cc1cnc(Nc2cc(C)n(C)n2)nc1-c1c[nH]c2c(NC(=O)CN3CC[C@H](Oc4ncc(F)cn4)C3)cccc12` [Example 93] is 7.00 to 8.00; for `Cc1cnc(Nc2cc(C)n(C)n2)nc1-c1c[nH]c2c(NC(=O)CN3CC[C@H](Oc4cnc(N5CCOCC5)nc4)C3)cccc12` [Example 241, (S)-N-(3-(2-((1,5-dimethyl-1H-pyrazol-3-yl)amino)-5-methylpyrimidin-4-yl)-1H-indol-7-yl)-2-(3-((2-morpholinopyrimidin-5-yl)oxy)pyrrolidin-1-yl)acetamide] it is 7.00 to 8.00; for `Cc1cnc(Nc2cc(C)n(C)n2)nc1-c1c[nH]c2c(N3Cc4c(cccc4-c4ccccc4O)C3=O)cccc12` [Example 441, 2-(3-(2-((1,5-dimethyl-1H-pyrazol-3-yl)amino)-5-methylpyrimidin-4-yl)-1H-indol-7-yl)-4-(2-hydroxyphenyl)isoindolin-1-one] it is 7.00 to 8.00.
The figure for `Cc1cnc(Nc2cc(C)n(C)n2)nc1-c1c[nH]c2c(NC(=O)CN3CC[C@H](Oc4cncc(NCCN(C)C)n4)C3)cccc12` [Example 247, (S)-N-(3-(2-((1,5-dimethyl-1H-pyrazol-3-yl)amino)-5-methylpyrimidin-4-yl)-1H-indol-7-yl)-2-(3-((6-((2-(dimethylamino)ethyl)amino)pyrazin-2-yl)oxy)pyrrolidin-1-yl)acetamide] is above 8.00.
`Cc1cnc(Nc2cc(C)n(C)n2)nc1-c1c[nH]c2c(N3Cc4c(-c5cncc(F)c5)ccc(F)c4C3=O)cccc12` [Example 484, 2-(3-(2-((1,5-dimethyl-1H-pyrazol-3-yl)amino)-5-methylpyrimidin-4-yl)-1H-indol-7-yl)-7-fluoro-4-(5-fluoropyridin-3-yl)isoindolin-1-one]: the pIC50 is above 8.00.
The figure for `Cc1cnc(Nc2cc(C)n(C)n2)nc1-c1c[nH]c2c(N3Cc4c(NC(=O)[C@@H]5CCN(C)C5)cccc4C3=O)cccc12` [Example 333, (R)-N-(2-(3-(2-((1,5-dimethyl-1H-pyrazol-3-yl)amino)-5-methylpyrimidin-4-yl)-1H-indol-7-yl)-1-oxoisoindolin-4-yl)-1-methylpyrrolidine-3-carboxamide] is above 8.00; for `Cc1cnc(Nc2cc(C)n(C)n2)nc1-c1c[nH]c2c(NC(=O)CN3CC[C@H](Oc4ccon4)C3)cccc12` [Example 118, (S)-N-(3-(2-((1,5-dimethyl-1H-pyrazol-3-yl)amino)-5-methylpyrimidin-4-yl)-1H-indol-7-yl)-2-(3-(isoxazol-3-yloxy)pyrrolidin-1-yl)acetamide] it is above 8.00; for `Cc1cc(-c2cccc3c2CN(c2cccc4c(-c5nc(Nc6cc(C)n(C)n6)ncc5C)c[nH]c24)C3=O)ccn1` [Example 429, 2-(3-(2-((1,5-dimethyl-1H-pyrazol-3-yl)amino)-5-methylpyrimidin-4-yl)-1H-indol-7-yl)-4-(2-methylpyridin-4-yl)isoindolin-1-one] it is above 8.00.
For `Cc1cnc(Nc2cc(C)n(C)n2)nc1-c1c[nH]c2c(NC(=O)CN3CC[C@H](Oc4ccnc(NC5CCCCC5)n4)C3)cccc12` [Example 210, (S)-2-(3-((2-(cyclohexylamino)pyrimidin-4-yl)oxy)pyrrolidin-1-yl)-N-(3-(2-((1,5-dimethyl-1H-pyrazol-3-yl)amino)-5-methylpyrimidin-4-yl)-1H-indol-7-yl)acetamide], the pIC50 was 7.00 to 8.00.
The figure for `Cc1cnc(Nc2cc(C)n(C)n2)nc1-c1c[nH]c2c(NC(=O)CN3CC[C@H](Oc4ccnc(NC5CCC5)n4)C3)cccc12` [Example 208, (S)-2-(3-((2-(cyclobutylamino)pyrimidin-4-yl)oxy)pyrrolidin-1-yl)-N-(3-(2-((1,5-dimethyl-1H-pyrazol-3-yl)amino)-5-methylpyrimidin-4-yl)-1H-indol-7-yl)acetamide] is above 8.00; for `Cc1cnc(Nc2cc(C)n(C)n2)nc1-c1c[nH]c2c(N3Cc4c(/C=C/CO)cccc4C3=O)cccc12` [Example 375, (E)-2-(3-(2-((1,5-dimethyl-1H-pyrazol-3-yl)amino)-5-methylpyrimidin-4-yl)-1H-indol-7-yl)-4-(3-hydroxyprop-1-en-1-yl)isoindolin-1-one] it is above 8.00; for `CNc1ccnc(O[C@H]2CCN(CC(=O)Nc3cccc4c(-c5nc(Nc6cc(C)n(C)n6)ncc5C)c[nH]c34)C2)n1` [Example 169, (S)-N-(3-(2-((1,5-dimethyl-1H-pyrazol-3-yl)amino)-5-methylpyrimidin-4-yl)-1H-indol-7-yl)-2-(3-((4-(methylamino)pyrimidin-2-yl)oxy)pyrrolidin-1-yl)acetamide] it is above 8.00.
Regarding `Cc1cnc(Nc2cc(C)n(C)n2)nc1-c1c[nH]c2c(N3Cc4c(-c5ccccc5)ccc(I)c4C3=O)cccc12` [Example 492, 2-(3-(2-((1,5-dimethyl-1H-pyrazol-3-yl)amino)-5-methylpyrimidin-4-yl)-1H-indol-7-yl)-7-iodo-4-phenylisoindolin-1-one], the pIC50 is 6.00 to 7.00.
The figure for `Cc1cnc(Nc2cc(C)n(C)n2)nc1-c1c[nH]c2c(N3Cc4c(NC(=O)C5CCOC5)cccc4C3=O)cccc12` (stereo not shown) [Example 326, N-(2-(3-(2-((1,5-dimethyl-1H-pyrazol-3-yl)amino)-5-methylpyrimidin-4-yl)-1H-indol-7-yl)-1-oxoisoindolin-4-yl)tetrahydrofuran-3-carboxamide] is above 8.00.
The figure for `Cc1cnc(Nc2cc(C)n(C)n2)nc1-c1c[nH]c2c(NC(=O)CN3CC[C@H](Oc4cc(C5=CCOCC5)ncn4)C3)cccc12` [Example 251, (S)-2-(3-((6-(3,6-dihydro-2H-pyran-4-yl)pyrimidin-4-yl)oxy)pyrrolidin-1-yl)-N-(3-(2-((1,5-dimethyl-1H-pyrazol-3-yl)amino)-5-methylpyrimidin-4-yl)-1H-indol-7-yl)acetamide] is 7.00 to 8.00; for `Cc1cnc(Nc2cc(C)n(C)n2)nc1-c1c[nH]c2c(N3Cc4c(cccc4-c4ccc(C#N)nc4)C3=O)cccc12` [Example 470, 5-(2-(3-(2-((1,5-dimethyl-1H-pyrazol-3-yl)amino)-5-methylpyrimidin-4-yl)-1H-indol-7-yl)-1-oxoisoindolin-4-yl)picolinonitrile] it is above 8.00.

Values taken from patent US20240025884A1 (Dong-A ST Co., Ltd., priority 2022, published 2024).
